According to patent US10925876B2, “Methods for using triazolo-pyrazinyl soluble guanylate cyclase activators in fibrotic disorders” (Merck Sharp & Dohme Corp., priority 2016, dated 2021):

The molecules below were run against T1, sGC α1/β1 heterodimer (Homo sapiens, UniProt Q02108+Q02153) (assay: Cell-Based sGC Functional Assay (CASA Assay), cGMP generation in CHO-K1/sGC cells). Conditions: maximum cGMP production of Compound A set to 100% activation, read-out: % Act. (percent activation relative to Compound A).
T1 construct: expressed in transfected cells
T1 sequence (Q02108 1-690): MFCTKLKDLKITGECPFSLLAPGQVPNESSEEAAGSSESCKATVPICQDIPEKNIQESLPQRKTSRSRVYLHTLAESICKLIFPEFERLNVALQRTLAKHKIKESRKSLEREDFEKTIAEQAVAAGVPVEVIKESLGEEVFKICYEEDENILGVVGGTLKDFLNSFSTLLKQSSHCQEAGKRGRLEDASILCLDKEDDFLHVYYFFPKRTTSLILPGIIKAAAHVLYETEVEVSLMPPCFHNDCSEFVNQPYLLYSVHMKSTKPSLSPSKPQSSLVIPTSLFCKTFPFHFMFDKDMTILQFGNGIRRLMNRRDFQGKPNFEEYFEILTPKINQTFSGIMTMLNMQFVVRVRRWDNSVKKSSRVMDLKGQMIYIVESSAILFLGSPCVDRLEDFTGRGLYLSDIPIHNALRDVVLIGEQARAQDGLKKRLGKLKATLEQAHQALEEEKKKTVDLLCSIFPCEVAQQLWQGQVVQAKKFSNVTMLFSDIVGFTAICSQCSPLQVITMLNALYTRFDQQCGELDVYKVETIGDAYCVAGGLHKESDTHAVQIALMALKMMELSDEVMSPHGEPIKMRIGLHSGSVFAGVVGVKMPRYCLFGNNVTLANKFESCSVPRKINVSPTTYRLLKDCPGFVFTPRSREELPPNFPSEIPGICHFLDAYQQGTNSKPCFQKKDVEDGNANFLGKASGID
T1 sequence (Q02153 1-619): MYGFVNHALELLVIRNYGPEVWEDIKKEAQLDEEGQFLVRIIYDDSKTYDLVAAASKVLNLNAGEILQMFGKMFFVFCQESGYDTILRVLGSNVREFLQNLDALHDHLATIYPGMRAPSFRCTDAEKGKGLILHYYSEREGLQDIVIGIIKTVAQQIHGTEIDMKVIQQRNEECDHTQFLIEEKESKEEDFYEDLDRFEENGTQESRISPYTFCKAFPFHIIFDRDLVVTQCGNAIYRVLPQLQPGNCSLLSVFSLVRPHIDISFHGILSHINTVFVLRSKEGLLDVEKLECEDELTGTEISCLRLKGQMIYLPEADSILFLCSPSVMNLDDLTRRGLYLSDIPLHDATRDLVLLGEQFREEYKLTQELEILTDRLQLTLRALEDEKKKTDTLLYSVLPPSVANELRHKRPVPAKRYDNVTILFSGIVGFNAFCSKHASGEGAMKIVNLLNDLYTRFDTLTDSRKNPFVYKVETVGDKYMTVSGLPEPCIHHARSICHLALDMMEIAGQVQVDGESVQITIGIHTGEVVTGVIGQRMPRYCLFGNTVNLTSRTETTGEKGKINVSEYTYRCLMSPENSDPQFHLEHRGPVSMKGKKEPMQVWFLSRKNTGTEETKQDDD
Summary of the method: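 CHO-K1 cells stably expressing human sGC α1/β1, 4×10^5/mL in EBSS with 5 mM MgCl2, 10 mM HEPES, 0.05% BSA, 0.5 mM IBMX, 2.5% DMSO; compounds 1 h at 37 °C ± 1 μM DETA-NO. cGMP by HTRF, expressed as % of reference Compound A maximum; IP and max fold induction from 4P fit.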
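Note: reference Compound A is a published heme-dependent sGC activator.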

Row | SMILES | Emax
1 | Nc1nc(-c2cn3ncnc3c(CCCC(F)(F)F)n2)nc2c1C(c1nnc(C3(F)CC3)o1)(C1CC1)C(=O)N2 (stereo not drawn) [Example 108A, 4-amino-5-cyclopropyl-5-(5-(1-fluorocyclopropyl)-1,3,4-oxadiazol-2-yl)-2-(8-(4,4,4-trifluorobutyl)-[1,2,4]triazolo[1,5-a]pyrazin-6-yl)-5H-pyrrolo[2,3-d]pyrimidin-6(7H)-one] | 107%
2 | CC1(c2nnc(C3(F)CC3)o2)C(=O)Nc2nc(-c3cn4ncnc4c(CCCC(F)(F)F)n3)nc(N)c21 (stereo not drawn) [Example 109A, 4-amino-5-(5-(1-fluorocyclopropyl)-1,3,4-oxadiazol-2-yl)-5-methyl-2-(8-(4,4,4-trifluorobutyl)-[1,2,4]triazolo[1,5-a]pyrazin-6-yl)-5H-pyrrolo[2,3-d]pyrimidin-6(7H)-one] | 92%
3 | CC1(c2ccc(O)cn2)C(=O)Nc2nc(-c3cn4ncnc4c(CCCC(F)(F)F)n3)nc(N)c21 (stereo not drawn) [Example 111A, 4-amino-5-(5-hydroxypyridin-2-yl)-5-methyl-2-(8-(4,4,4-trifluorobutyl)-[1,2,4]triazolo[1,5-a]pyrazin-6-yl)-5H-pyrrolo[2,3-d]pyrimidin-6(7H)-one] | 75%
4 | C[C@@]1(c2ccc(F)cc2)C(=O)Nc2nc(-c3cn4ncnc4c(Cc4cccc(O)c4)n3)nc(N)c21 [Example 113B, (S)-4-amino-5-(4-fluorophenyl)-2-(8-(3-hydroxybenzyl)-[1,2,4]triazolo[1,5-a]pyrazin-6-yl)-5-methyl-5H-pyrrolo[2,3-d]pyrimidin-6(7H)-one] | 171%
5 | CCCCc1nc(-c2nc(N)c3c(n2)NC(=O)C3(c2ccccn2)C2CC2)cn2ncnc12 (stereo not drawn) [Example 116A, 4-amino-2-(8-butyl-[1,2,4]triazolo[1,5-a]pyrazin-6-yl)-5-cyclopropyl-5-(pyridin-2-yl)-5H-pyrrolo[2,3-d]pyrimidin-6(7H)-one] | 85%
6 | N#Cc1ccc(C2(C3CC3)C(=O)Nc3nc(-c4cn5ncnc5c(CCCC(F)(F)F)n4)nc(N)c32)nc1 (stereo not drawn) [Example 117A, 6-(4-Amino-5-cyclopropyl-6-oxo-2-(8-(4,4,4-trifluorobutyl)-[1,2,4]triazolo[1,5-a]pyrazin-6-yl)-6,7-dihydro-5H-pyrrolo[2,3-d]pyrimidin-5-yl)nicotinonitrile] | 140%
7 | N#Cc1ccc(C2(C3CC3)C(=O)Nc3nc(-c4cn5ncnc5c(CCC(F)(F)C(F)(F)F)n4)nc(N)c32)nc1 (stereo not drawn) [Example 118A, 6-(4-Amino-5-cyclopropyl-6-oxo-2-(8-(3,3,4,4,4-pentafluorobutyl)-[1,2,4]triazolo[1,5-a]pyrazin-6-yl)-6,7-dihydro-5H-pyrrolo[2,3-d]pyrimidin-5-yl)nicotinonitrile] | 72%
8 | O=C1Nc2nc(-c3cn4ncnc4c(CCC(F)(F)C(F)(F)F)n3)nc(O)c2C1(c1ccc(F)c(F)c1)C1CC1 (stereo not drawn) [Example 123A, 5-cyclopropyl-5-(3,4-difluorophenyl)-4-hydroxy-2-(8-(3,3,4,4,4-pentafluorobutyl)-[1,2,4]triazolo[1,5-a]pyrazin-6-yl)-5H-pyrrolo[2,3-b]pyrimidin-6(7H)-one] | 78%
9 | O=C1Nc2nc(-c3cn4ncnc4c(CCC(F)(F)C(F)(F)F)n3)nc(O)c2C1(c1cncc(F)c1)C1CC1 (stereo not drawn) [Example 124B, 5-cyclopropyl-5-(5-fluoropyridin-3-yl)-4-hydroxy-2-(8-(3,3,4,4,4-pentafluorobutyl)-[1,2,4]triazolo[1,5-a]pyrazin-6-yl)-5H-pyrrolo[2,3-d]pyrimidin-6(7H)-one] | 88%

The remaining lines, values ahead:

Row | Emax | SMILES
10 | 102% | CC1(c2ccc(Cl)cc2)C(=O)Nc2nc(-c3cn4ncnc4c(CCC(F)(F)C(F)(F)F)n3)nc(O)c21 (stereo not drawn) [Example 126A, 5-(4-chlorophenyl)-4-hydroxy-5-methyl-2-(8-(3,3,4,4,4-pentafluorobutyl)-[1,2,4]triazolo[1,5-a]pyrazin-6-yl)-5H-pyrrolo[2,3-d]pyrimidin-6(7H)-one]
11 | 129% | CC1(c2ccccn2)C(=O)Nc2nc(-c3cn4ncnc4c(CCC(F)(F)C(F)(F)F)n3)nc(O)c21 (stereo not drawn) [Example 127B, 4-hydroxy-5-methyl-2-(8-(3,3,4,4,4-pentafluorobutyl)-[1,2,4]triazolo[1,5-a]pyrazin-6-yl)-5-(pyridin-2-yl)-5H-pyrrolo[2,3-d]pyrimidin-6(7H)-one]
12 | 106% | CC1(c2ccccc2)C(=O)Nc2nc(-c3cn4ncnc4c(CCC(F)(F)C(F)(F)F)n3)nc(O)c21 (stereo not drawn) [Example 128B, 4-hydroxy-5-methyl-2-(8-(3,3,4,4,4-pentafluorobutyl)-[1,2,4]triazolo[1,5-a]pyrazin-6-yl)-5-phenyl-5H-pyrrolo[2,3-d]pyrimidin-6(7H)-one]
13 | 66% | CC1(c2cccc(F)c2)C(=O)Nc2nc(-c3cn4ncnc4c(CCC(F)(F)C(F)(F)F)n3)nc(O)c21 (stereo not drawn) [Example 129B, 5-(3-fluorophenyl)-4-hydroxy-5-methyl-2-(8-(3,3,4,4,4-pentafluorobutyl)-[1,2,4]triazolo[1,5-a]pyrazin-6-yl)-5,7-dihydro-6H-pyrrolo[2,3-d]pyrimidin-6-one]
14 | 109% | Cc1ccc(C2(C)C(=O)Nc3nc(-c4cn5ncnc5c(CCC(F)(F)C(F)(F)F)n4)nc(O)c32)nc1 (stereo not drawn) [Example 130B, 4-hydroxy-5-methyl-5-(5-methylpyridin-2-yl)-2-(8-(3,3,4,4,4-pentafluorobutyl)-[1,2,4]triazolo[1,5-a]pyrazin-6-yl)-5H-pyrrolo[2,3-d]pyrimidin-6(7H)-one]
15 | 99% | CC1(c2ccc(C#N)cn2)C(=O)Nc2nc(-c3cn4ncnc4c(CCC(F)(F)C(F)(F)F)n3)nc(O)c21 (stereo not drawn) [Example 131A, 6-(4-hydroxy-5-methyl-6-oxo-2-(8-(3,3,4,4,4-pentafluorobutyl)-[1,2,4]triazolo[1,5-a]pyrazin-6-yl)-6,7-dihydro-5H-pyrrolo[2,3-d]pyrimidin-5-yl)nicotinonitrile]
16 | 87% | Cc1nc2c(CCC(F)(F)C(F)(F)F)nc(-c3nc(O)c4c(n3)NC(=O)[C@@]4(C)c3ccc(F)cc3)cn2n1 [Example 133B, (S)-5-(4-fluorophenyl)-4-hydroxy-5-methyl-2-(2-methyl-8-(3,3,4,4,4-pentafluorobutyl)-[1,2,4]triazolo[1,5-a]pyrazin-6-yl)-5H-pyrrolo[2,3-d]pyrimidin-6(7H)-one]
17 | 102% | CC1(c2ccc(C(F)(F)F)cc2)C(=O)Nc2nc(-c3cn4ncnc4c(CCCC(F)(F)F)n3)nc(O)c21 (stereo not drawn) [Example 137B, 4-hydroxy-5-methyl-2-(8-(4,4,4-trifluorobutyl)-[1,2,4]triazolo[1,5-a]pyrazin-6-yl)-5-(4-(trifluoromethyl)phenyl)-5H-pyrrolo[2,3-d]pyrimidin-6(7H)-one]
18 | 169% | O=C1Nc2nc(-c3cn4ncnc4c(CCCC(F)(F)F)n3)nc(O)c2C1(c1ccc(F)cc1)C1CC1 (stereo not drawn) [Example 139B, 5-cyclopropyl-5-(4-fluorophenyl)-4-hydroxy-2-(8-(4,4,4-trifluorobutyl)-[1,2,4]triazolo[1,5-a]pyrazin-6-yl)-5H-pyrrolo[2,3-d]pyrimidin-6(7H)-one]
19 | 87% | O=C1Nc2nc(-c3cn4ncnc4c(CCCC(F)(F)F)n3)nc(O)c2C1(c1ccc(C(F)(F)F)cc1)C1CC1 (stereo not drawn) [Example 144A, 5-cyclopropyl-4-hydroxy-2-(8-(4,4,4-trifluorobutyl)-[1,2,4]triazolo[1,5-a]pyrazin-6-yl)-5-(4-(trifluoromethyl)phenyl)-5H-pyrrolo[2,3-d]pyrimidin-6(7H)-one]
20 | 64% | CC1(c2ccccn2)C(=O)Nc2nc(-c3cn4ncnc4c(CCCC(F)(F)F)n3)nc(O)c21 (stereo not drawn) [Example 145B, 4-hydroxy-5-methyl-5-(pyridin-2-yl)-2-(8-(4,4,4-trifluorobutyl)-[1,2,4]triazolo[1,5-a]pyrazin-6-yl)-5H-pyrrolo[2,3-d]pyrimidin-6(7H)-one]
21 | 94% | CC1(c2ccc(F)c(Cl)c2)C(=O)Nc2nc(-c3cn4ncnc4c(CCCC(F)(F)F)n3)nc(O)c21 (stereo not drawn) [Example 147B, 5-(3-chloro-4-fluorophenyl)-4-hydroxy-5-methyl-2-(8-(4,4,4-trifluorobutyl)-[1,2,4]triazolo[1,5-a]pyrazin-6-yl)-5,7-dihydro-6H-pyrrolo[2,3-d]pyrimidin-6-one]
